Legend:
[1] = target: T1, Lysine-specific demethylase 4A (Homo sapiens, UniProt O75164); assay: Inhibition of human recombinant KDM4A assessed as decarboxylation of [1-14C] alphaKG at pH 7.4 using H3K9me3 as substrates incubated for 1 hr
T1 sequence (O75164 whole entry): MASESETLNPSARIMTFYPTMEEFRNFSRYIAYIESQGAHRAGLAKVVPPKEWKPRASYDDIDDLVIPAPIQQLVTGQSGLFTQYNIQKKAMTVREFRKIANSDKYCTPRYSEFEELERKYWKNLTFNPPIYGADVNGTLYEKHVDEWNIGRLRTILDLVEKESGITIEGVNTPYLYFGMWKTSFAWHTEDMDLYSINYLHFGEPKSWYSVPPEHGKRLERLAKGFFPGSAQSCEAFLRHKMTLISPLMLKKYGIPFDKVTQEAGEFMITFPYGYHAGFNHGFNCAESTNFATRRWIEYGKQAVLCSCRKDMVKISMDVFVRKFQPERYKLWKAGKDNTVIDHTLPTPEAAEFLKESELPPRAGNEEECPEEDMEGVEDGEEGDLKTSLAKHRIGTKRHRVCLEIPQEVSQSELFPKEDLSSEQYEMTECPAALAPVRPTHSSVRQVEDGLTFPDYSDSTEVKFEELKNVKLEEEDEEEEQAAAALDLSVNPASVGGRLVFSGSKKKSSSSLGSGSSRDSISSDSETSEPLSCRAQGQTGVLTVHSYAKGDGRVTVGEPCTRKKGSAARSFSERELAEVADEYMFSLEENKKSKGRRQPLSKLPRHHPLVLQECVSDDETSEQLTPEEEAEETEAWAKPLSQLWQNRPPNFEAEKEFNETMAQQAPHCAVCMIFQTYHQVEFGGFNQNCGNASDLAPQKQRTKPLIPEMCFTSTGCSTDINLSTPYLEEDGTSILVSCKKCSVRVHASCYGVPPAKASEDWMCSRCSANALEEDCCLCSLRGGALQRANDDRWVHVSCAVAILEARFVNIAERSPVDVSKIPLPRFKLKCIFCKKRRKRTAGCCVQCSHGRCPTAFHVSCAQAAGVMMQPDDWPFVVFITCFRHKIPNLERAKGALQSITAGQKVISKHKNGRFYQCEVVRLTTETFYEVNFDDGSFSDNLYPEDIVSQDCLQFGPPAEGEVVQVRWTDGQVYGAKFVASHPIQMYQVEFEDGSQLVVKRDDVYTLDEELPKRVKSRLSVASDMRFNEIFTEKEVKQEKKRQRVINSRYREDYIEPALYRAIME

[2] = target: Lysine-specific demethylase 5B (Homo sapiens, UniProt Q9UGL1); assay: Inhibition of human recombinant KDM5B assessed as decarboxylation of [1-14C] alphaKG by measuring 14CO2 release using H3K4me3 as substrate incubated for 1 hr
Chain of Lysine-specific demethylase 5B (Q9UGL1 whole entry): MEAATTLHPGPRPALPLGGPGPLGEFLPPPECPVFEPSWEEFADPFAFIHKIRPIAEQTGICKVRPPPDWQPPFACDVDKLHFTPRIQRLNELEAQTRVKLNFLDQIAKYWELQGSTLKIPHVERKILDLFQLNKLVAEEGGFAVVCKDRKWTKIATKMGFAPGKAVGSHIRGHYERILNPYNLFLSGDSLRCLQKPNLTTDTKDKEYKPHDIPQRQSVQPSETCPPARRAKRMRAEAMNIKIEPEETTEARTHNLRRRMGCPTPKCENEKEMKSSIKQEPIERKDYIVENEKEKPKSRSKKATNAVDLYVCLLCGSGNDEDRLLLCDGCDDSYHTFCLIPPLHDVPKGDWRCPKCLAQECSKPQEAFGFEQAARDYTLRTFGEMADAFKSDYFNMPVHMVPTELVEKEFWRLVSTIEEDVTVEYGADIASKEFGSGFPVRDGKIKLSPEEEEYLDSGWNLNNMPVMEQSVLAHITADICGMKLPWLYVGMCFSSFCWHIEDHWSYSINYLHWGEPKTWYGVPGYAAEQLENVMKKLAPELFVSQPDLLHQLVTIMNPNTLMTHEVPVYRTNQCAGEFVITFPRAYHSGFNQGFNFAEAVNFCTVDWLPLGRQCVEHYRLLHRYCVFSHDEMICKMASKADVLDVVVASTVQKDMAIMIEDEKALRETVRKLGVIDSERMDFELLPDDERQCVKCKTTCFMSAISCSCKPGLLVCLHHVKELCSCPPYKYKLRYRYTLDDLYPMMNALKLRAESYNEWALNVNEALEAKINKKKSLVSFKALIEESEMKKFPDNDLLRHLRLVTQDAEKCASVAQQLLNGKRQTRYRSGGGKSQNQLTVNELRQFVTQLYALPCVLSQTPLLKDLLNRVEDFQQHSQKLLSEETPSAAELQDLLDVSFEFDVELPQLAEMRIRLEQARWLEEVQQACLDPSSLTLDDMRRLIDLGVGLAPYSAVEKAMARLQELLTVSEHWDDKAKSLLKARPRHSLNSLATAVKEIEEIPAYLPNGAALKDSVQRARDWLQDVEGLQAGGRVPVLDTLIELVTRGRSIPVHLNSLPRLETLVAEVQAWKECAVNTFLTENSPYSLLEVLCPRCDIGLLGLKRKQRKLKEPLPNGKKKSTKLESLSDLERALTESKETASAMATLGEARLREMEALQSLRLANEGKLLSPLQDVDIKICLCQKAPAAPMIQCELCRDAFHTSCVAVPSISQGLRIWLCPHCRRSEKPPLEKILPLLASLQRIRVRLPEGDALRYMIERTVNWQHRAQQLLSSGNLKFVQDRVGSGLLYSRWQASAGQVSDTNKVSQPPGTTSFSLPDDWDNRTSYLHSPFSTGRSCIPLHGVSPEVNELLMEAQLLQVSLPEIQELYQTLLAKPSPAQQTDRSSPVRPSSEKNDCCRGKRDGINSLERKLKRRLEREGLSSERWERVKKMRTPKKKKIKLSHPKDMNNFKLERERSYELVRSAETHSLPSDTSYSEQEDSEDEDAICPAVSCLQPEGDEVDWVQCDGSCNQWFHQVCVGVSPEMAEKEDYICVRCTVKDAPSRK

Compound: Cc1cccc(-c2ccc3c(C#N)c(O)c(C(=O)CCC(=O)O)nc3c2)c1
- IC50 [1]: 22000 nM
- IC50 [2]: 230 nM

Compound: N#Cc1c(O)c(C(=O)CCC(=O)O)nc2cc(Sc3ccccc3)ccc12
- IC50 [1]: > 40000 nM
- IC50 [2]: 150 nM

Compound: N#Cc1c(O)c(C(=O)CCC(=O)O)nc2ccc(-c3ccccc3)cc12
- IC50 [1]: > 40000 nM
- IC50 [2]: 310 nM

Compound: N#Cc1c(O)c(C(=O)CCC(=O)O)nc2ccc(Cc3ccccc3)cc12
- IC50 [1]: > 40000 nM
- IC50 [2]: 970 nM

Compound: N#Cc1c(O)c(C(=O)CCC(=O)O)nc2cc(-c3ccccc3)ccc12
- IC50 [1]: 3900 nM
- IC50 [2]: 90 nM

Compound: COc1ccc(-c2ccc3c(C#N)c(O)c(C(=O)CCC(=O)O)nc3c2)cc1
- IC50 [1]: > 40000 nM
- IC50 [2]: 220 nM

Compound: Cc1cc(C)cc(-c2ccc3c(C#N)c(O)c(C(=O)CCC(=O)O)nc3c2)c1
- IC50 [1]: > 40000 nM
- IC50 [2]: 370 nM

Compound: O=C(O)CCC(=O)c1nc2cc(-c3ccccc3)ccc2cc1O
- IC50 [1]: > 40000 nM
- IC50 [2]: > 40000 nM

Compound: N#Cc1ccc(-c2cccc3c(C#N)c(O)c(C(=O)CCC(=O)O)nc23)cc1
- IC50 [1]: 7900 nM
- IC50 [2]: 130 nM

Compound: N#Cc1c(O)c(C(=O)CCC(=O)O)nc2ccccc12
- IC50 [1]: 40000 nM
- IC50 [2]: 130 nM

Compound: N#Cc1c(O)c(C(=O)CCC(=O)O)nc2cc(Cc3ccccc3)ccc12
- IC50 [1]: > 40000 nM
- IC50 [2]: 240 nM

Reference: ChEMBL document CHEMBL5390304, “Phenyl-quinoline-xxo-butyric Acid Inhibitors of Histone Lysine Demethylase for the Treatment of Cancer” (ACS Med Chem Lett, 2023)
